± gives the expanded uncertainty stated by the source.
Assay: mn = molality of the nth substance listed, in mol/kg
Conditions: 100 kPa, Liquid; for speed of sound: Frequency=3 MHz, Single path-length method; for mass density: Vibrating tube method

CNCCC=C1c2ccccc2CCc2ccccc21.Cl + O
speed of sound (288.15 K, m1 = 0.025): 1471.8 ± 1.5 m/s | speed of sound (288.15 K, m1 = 0.05): 1475.9 ± 1.5 m/s | speed of sound (288.15 K, m1 = 0.075): 1478.3 ± 1.5 m/s | mass density (288.15 K, m1 = 0.025): 1000.19 ± 0.38 kg/m3 | mass density (288.15 K, m1 = 0.05): 1001.25 ± 0.39 kg/m3 | mass density (288.15 K, m1 = 0.075): 1002.26 ± 0.39 kg/m3 | speed of sound (293.15 K, m1 = 0.025): 1487.4 ± 1.5 m/s | speed of sound (293.15 K, m1 = 0.05): 1491.2 ± 1.5 m/s | speed of sound (293.15 K, m1 = 0.075): 1493.7 ± 1.5 m/s | mass density (293.15 K, m1 = 0.025): 999.27 ± 0.38 kg/m3 | mass density (293.15 K, m1 = 0.05): 1000.3 ± 0.38 kg/m3 | mass density (293.15 K, m1 = 0.075): 1001.3 ± 0.39 kg/m3 | speed of sound (298.15 K, m1 = 0.025): 1501.2 ± 1.5 m/s | speed of sound (298.15 K, m1 = 0.05): 1504.8 ± 1.5 m/s | speed of sound (298.15 K, m1 = 0.075): 1507.2 ± 1.5 m/s | mass density (298.15 K, m1 = 0.025): 998.086 ± 0.38 kg/m3 | mass density (298.15 K, m1 = 0.05): 999.096 ± 0.38 kg/m3 | mass density (298.15 K, m1 = 0.075): 1000.07 ± 0.39 kg/m3 | speed of sound (303.15 K, m1 = 0.025): 1513.2 ± 1.5 m/s | speed of sound (303.15 K, m1 = 0.05): 1516.7 ± 1.5 m/s | speed of sound (303.15 K, m1 = 0.075): 1519 ± 1.5 m/s | mass density (303.15 K, m1 = 0.025): 996.667 ± 0.38 kg/m3 | mass density (303.15 K, m1 = 0.05): 997.655 ± 0.38 kg/m3 | mass density (303.15 K, m1 = 0.075): 998.612 ± 0.39 kg/m3 | speed of sound (308.15 K, m1 = 0.025): 1523.6 ± 1.5 m/s | speed of sound (308.15 K, m1 = 0.05): 1526.8 ± 1.5 m/s | speed of sound (308.15 K, m1 = 0.075): 1529.1 ± 1.5 m/s | mass density (308.15 K, m1 = 0.025): 995.032 ± 0.38 kg/m3 | mass density (308.15 K, m1 = 0.05): 995.999 ± 0.38 kg/m3 | mass density (308.15 K, m1 = 0.075): 996.941 ± 0.39 kg/m3
